Data published in patent US8796289B2 (AbbVie Inc., priority 2011, dated 2014).

Target: GST-tagged-Wee1 kinase (Homo sapiens, UniProt P30291)
Assay: Wee1 time-resolved fluorescence equilibrium binding assay (displacement of Oregon Green-labeled ATP-competitive kinase probe)
Experimental: Wee1 kinase was assayed using a time-resolved fluorescence equilibrium binding assay monitoring displacement of a rapidly reversible Oregon Green-labeled ATP-competitive kinase probe (N-(2-(2-(2-(4-(4-(5-chloro-4-(2-(1-hydroxycyclobutyl)thiazol-5-yl)-1H-pyrrolo[2,3-b]pyridin-2-yl)phenyl)piperazin-1-yl)ethoxy)ethoxy)ethyl)-2′,7′-difluoro-3′,6′-dihydroxy-3-oxo-3H-spiro[isobenzofuran-1,9′-xanthene]-5-carboxamide) by competitive Wee1 inhibitors.

GST-tagged-Wee1 kinase, sequence (P30291 whole entry): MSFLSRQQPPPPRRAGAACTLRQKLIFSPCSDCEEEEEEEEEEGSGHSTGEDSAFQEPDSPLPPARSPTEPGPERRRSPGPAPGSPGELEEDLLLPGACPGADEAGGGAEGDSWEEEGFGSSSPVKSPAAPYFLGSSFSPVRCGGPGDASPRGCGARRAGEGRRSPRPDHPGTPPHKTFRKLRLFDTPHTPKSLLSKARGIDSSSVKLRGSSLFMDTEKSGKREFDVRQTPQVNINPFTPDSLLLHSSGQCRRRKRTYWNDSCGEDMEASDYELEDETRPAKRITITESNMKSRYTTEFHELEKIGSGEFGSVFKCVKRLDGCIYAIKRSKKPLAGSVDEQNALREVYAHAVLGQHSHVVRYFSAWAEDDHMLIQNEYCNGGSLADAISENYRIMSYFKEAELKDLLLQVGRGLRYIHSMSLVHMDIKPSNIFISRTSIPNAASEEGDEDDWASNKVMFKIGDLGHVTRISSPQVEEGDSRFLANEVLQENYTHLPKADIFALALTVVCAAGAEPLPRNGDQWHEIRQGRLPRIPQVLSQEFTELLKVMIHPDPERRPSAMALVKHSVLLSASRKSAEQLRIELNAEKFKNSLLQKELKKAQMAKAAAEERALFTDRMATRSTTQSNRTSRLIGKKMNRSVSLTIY

In the case of `Cc1nn(-c2c(Cl)cccc2Cl)c(=O)c2cnc(Nc3ccc(N4CCN(C)CC4)cc3)nc12` [Example 314, 6-(2,6-dichlorophenyl)-8-methyl-2-{[4-(4-methylpiperazin-1-yl)phenyl]amino}pyrimido[4,5-d]pyridazin-5(6H)-one], the Ki is reported as 1.2 nM.
`O=c1c2cnc(Nc3ccc4c(c3)CNCC43CC3)nc2c(-c2cncs2)nn1-c1c(Cl)cccc1Cl` [Example 315, 6-(2,6-dichlorophenyl)-2-(2′,3′-dihydro-1′H-spiro[cyclopropane-1,4′-isoquinolin]-7′-ylamino)-8-(1,3-thiazol-5-yl)pyrimido[4,5-d]pyridazin-5(6H)-one] showed a Ki of 1.9 nM.
With `CN1CCN(c2ccc(Nc3ncc4c(=O)n(-c5c(Cl)cccc5Cl)nc(-c5nccs5)c4n3)cc2)CC1` [Example 316, 6-(2,6-dichlorophenyl)-2-{[4-(4-methylpiperazin-1-yl)phenyl]amino}-8-(1,3-thiazol-2-yl)pyrimido[4,5-d]pyridazin-5(6H)-one] the Ki was 1.8 nM.
For `CN1Cc2cc(Nc3ncc4c(=O)n(-c5c(Cl)cccc5Cl)nc(-c5cncs5)c4n3)ccc2C2(CC2)C1` [Example 317, 6-(2,6-dichlorophenyl)-2-[(2′-methyl-2′,3′-dihydro-1′H-spiro[cyclopropane-1,4′-isoquinolin]-7′-yl)amino]-8-(1,3-thiazol-5-yl)pyrimido[4,5-d]pyridazin-5(6H)-one], the Ki was 0.38 nM.
`O=c1c2cnc(Nc3ccc4c(c3)CNCC4)nc2c(-c2cncs2)nn1-c1c(Cl)cccc1Cl` [Example 318, 6-(2,6-dichlorophenyl)-2-(1,2,3,4-tetrahydroisoquinolin-7-ylamino)-8-(1,3-thiazol-5-yl)pyrimido[4,5-d]pyridazin-5(6H)-one] was tested, and the Ki was 0.26 nM.
With `O=c1c2cnc(Nc3ccc(N4CCNCC4)cc3)nc2c(-c2cncs2)nn1-c1c(Cl)cccc1Cl` [Example 319, 6-(2,6-dichlorophenyl)-2-{[4-(piperazin-1-yl)phenyl]amino}-8-(1,3-thiazol-5-yl)pyrimido[4,5-d]pyridazin-5(6H)-one] the Ki was 0.39 nM.
For `CN1Cc2cc(Nc3ncc4c(=O)n(-c5c(Cl)cccc5Cl)nc(-c5nccs5)c4n3)ccc2C2(CC2)C1` [Example 320, 6-(2,6-dichlorophenyl)-2-[(2′-methyl-2′,3′-dihydro-1′H-spiro[cyclopropane-1,4′-isoquinolin]-7′-yl)amino]-8-(1,3-thiazol-2-yl)pyrimido[4,5-d]pyridazin-5(6H)-one], the Ki was 0.49 nM.
`O=c1c2cnc(Nc3ccc(N4CCN(C5COC5)CC4)cc3)nc2c(-c2ccncc2)nn1-c1c(Cl)cccc1Cl` [Example 321, 6-(2,6-dichlorophenyl)-2-({4-[4-(oxetan-3-yl)piperazin-1-yl]phenyl}amino)-8-(pyridin-4-yl)pyrimido[4,5-d]pyridazin-5(6H)-one] gave a Ki of 0.8 nM.
`CN1CCC(n2nc(-c3ccccn3)c3nc(Nc4ccc(N5CCNCC5)cc4)ncc3c2=O)CC1` [Example 322, 6-(1-methylpiperidin-4-yl)-2-{[4-(piperazin-1-yl)phenyl]amino}-8-(pyridin-2-yl)pyrimido[4,5-d]pyridazin-5(6H)-one] showed a Ki greater than 3140 nM.
`CN1CCN(c2ccc(Nc3ncc4c(=O)n(-c5c(Cl)cccc5Cl)ncc4n3)cc2)CC1` [Example 323, 6-(2,6-dichlorophenyl)-2-{[4-(4-methylpiperazin-1-yl)phenyl]amino}pyrimido[4,5-d]pyridazin-5(6H)-one] was tested, and the Ki was 0.49 nM.
Molecule `CN1Cc2cc(Nc3ncc4c(=O)n(-c5c(Cl)cccc5Cl)ncc4n3)ccc2C2(CC2)C1` [Example 324, 6-(2,6-dichlorophenyl)-2-[(2′-methyl-2′,3′-dihydro-1′H-spiro[cyclopropane-1,4′-isoquinolin]-7′-yl)amino]pyrimido[4,5-d]pyridazin-5(6H)-one] has a Ki of 0.2 nM.
Molecule `O=c1c2cnc(Nc3ccc(N4CCNCC4)cc3)nc2cnn1-c1c(Cl)cccc1Cl` [Example 325, 6-(2,6-dichlorophenyl)-2-{[4-(piperazin-1-yl)phenyl]amino}pyrimido[4,5-d]pyridazin-5(6H)-one] has a Ki of 0.7 nM.
For `O=c1c2cnc(Nc3ccc4c(c3)CNCC43CC3)nc2cnn1-c1c(Cl)cccc1Cl` [Example 326, 6-(2,6-dichlorophenyl)-2-(2′,3′-dihydro-1′H-spiro[cyclopropane-1,4′-isoquinolin]-7′-ylamino)pyrimido[4,5-d]pyridazin-5(6H)-one], the Ki was 0.53 nM.
In the case of `O=c1c2cnc(Nc3ccc4c(c3)CNCC4)nc2cnn1-c1c(Cl)cccc1Cl` [Example 327, 6-(2,6-dichlorophenyl)-2-(1,2,3,4-tetrahydroisoquinolin-7-ylamino)pyrimido[4,5-d]pyridazin-5(6H)-one], the Ki is reported as 0.93 nM.
With `CN1CCC(n2nc(-c3ccccn3)c3nc(Nc4ccc5c(c4)CN(C)CC5(C)C)ncc3c2=O)CC1` [Example 328, 6-(1-methylpiperidin-4-yl)-8-(pyridin-2-yl)-2-[(2,4,4-trimethyl-1,2,3,4-tetrahydroisoquinolin-7-yl)amino]pyrimido[4,5-d]pyridazin-5(6H)-one] the Ki was 220 nM.
`CN1CCC(n2nc(-c3ccccn3)c3nc(Nc4ccc5c(c4)CNCC5(C)C)ncc3c2=O)CC1` [Example 329, 2-[(4,4-dimethyl-1,2,3,4-tetrahydroisoquinolin-7-yl)amino]-6-(1-methylpiperidin-4-yl)-8-(pyridin-2-yl)pyrimido[4,5-d]pyridazin-5(6H)-one] was tested, and the Ki was 27 nM.
With `CC1CCCC(C)C1n1nc(-c2ccccn2)c2nc(Nc3ccc4c(c3)CN(C)CC4(C)C)ncc2c1=O` (centres unmarked) [Example 330, 6-(2,6-dimethylcyclohexyl)-8-(pyridin-2-yl)-2-[(2,4,4-trimethyl-1,2,3,4-tetrahydroisoquinolin-7-yl)amino]pyrimido[4,5-d]pyridazin-5(6H)-one] the Ki was 260 nM.
Work on `CC1CCCC(C)C1n1nc(-c2ccccn2)c2nc(Nc3ccc4c(c3)CNCC4(C)C)ncc2c1=O` (centres unmarked) [Example 331, 6-(2,6-dimethylcyclohexyl)-2-[(4,4-dimethyl-1,2,3,4-tetrahydroisoquinolin-7-yl)amino]-8-(pyridin-2-yl)pyrimido[4,5-d]pyridazin-5(6H)-one] yielded a Ki of 180 nM.
Work on `CN1CCCC(n2nc(-c3ccccn3)c3nc(Nc4ccc5c(c4)CNCC5(C)C)ncc3c2=O)C1` (centres unmarked) [Example 332, 2-[(4,4-dimethyl-1,2,3,4-tetrahydroisoquinolin-7-yl)amino]-6-(1-methylpiperidin-3-yl)-8-(pyridin-2-yl)pyrimido[4,5-d]pyridazin-5(6H)-one] yielded a Ki of 490 nM.
`CC1CCCC(C)C1n1nc(-c2ccccn2)c2nc(Nc3ccc(N4CCNCC4)cc3)ncc2c1=O` (centres unmarked) [Example 333, 6-(2,6-dimethylcyclohexyl)-2-{[4-(piperazin-1-yl)phenyl]amino}-8-(pyridin-2-yl)pyrimido[4,5-d]pyridazin-5(6H)-one] gave a Ki of 770 nM.
Work on `CN1CCCC(n2nc(-c3ccccn3)c3nc(Nc4ccc(N5CCNCC5)cc4)ncc3c2=O)C1` (centres unmarked) [Example 334, 6-(1-methylpiperidin-3-yl)-2-{[4-(piperazin-1-yl)phenyl]amino}-8-(pyridin-2-yl)pyrimido[4,5-d]pyridazin-5(6H)-one] yielded a Ki of 640 nM.
`CC(C)n1cc(-c2nn(-c3c(F)cccc3Cl)c(=O)c3cnc(Nc4ccc5c(c4)CNCC54CC4)nc23)cn1` [Example 335, 6-(2-chloro-6-fluorophenyl)-2-(2′,3′-dihydro-1′H-spiro[cyclopropane-1,4′-isoquinolin]-7′-ylamino)-8-[1-(propan-2-yl)-1H-pyrazol-4-yl]pyrimido[4,5-d]pyridazin-5(6H)-one] was tested, and the Ki was 0.21 nM.
`CN1CCN(c2ccc(Nc3ncc4c(=O)n(-c5ncccc5Cl)nc(-c5ccncc5)c4n3)cc2)CC1` [Example 336, 6-(3-chloropyridin-2-yl)-2-{[4-(4-methylpiperazin-1-yl)phenyl]amino}-8-(pyridin-4-yl)pyrimido[4,5-d]pyridazin-5(6H)-one] was tested, and the Ki was 0.49 nM.
`CC(C)n1cc(-c2nn(-c3c(Cl)cccc3Cl)c(=O)c3cnc(Nc4ccc5c(c4)CNCC54CC4)nc23)cn1` [Example 337, 6-(2,6-dichlorophenyl)-2-(2′,3′-dihydro-1′H-spiro[cyclopropane-1,4′-isoquinolin]-7′-ylamino)-8-[1-(propan-2-yl)-1H-pyrazol-4-yl]pyrimido[4,5-d]pyridazin-5(6H)-one] showed a Ki of 0.22 nM.
With `CN1CCN(c2ccc(Nc3ncc4c(=O)n(-c5c(Cl)cccc5Cl)nc(-c5cn(C)cn5)c4n3)cc2)CC1` [Example 338, 6-(2,6-dichlorophenyl)-8-(1-methyl-1H-imidazol-4-yl)-2-{[4-(4-methylpiperazin-1-yl)phenyl]amino}pyrimido[4,5-d]pyridazin-5(6H)-one] the Ki was 0.72 nM.
In the case of `CN1Cc2cc(Nc3ncc4c(=O)n(-c5c(Cl)cccc5Cl)nc(-c5cn(C)cn5)c4n3)ccc2C2(CC2)C1` [Example 339, 6-(2,6-dichlorophenyl)-2-[(2′-methyl-2′,3′-dihydro-1′H-spiro[cyclopropane-1,4′-isoquinolin]-7′-yl)amino]-8-(1-methyl-1H-imidazol-4-yl)pyrimido[4,5-d]pyridazin-5(6H)-one], the Ki is reported as 0.71 nM.
Work on `Cn1cnc(-c2nn(-c3c(Cl)cccc3Cl)c(=O)c3cnc(Nc4ccc(N5CCNCC5)cc4)nc23)c1` [Example 340, 6-(2,6-dichlorophenyl)-8-(1-methyl-1H-imidazol-4-yl)-2-{[4-(piperazin-1-yl)phenyl]amino}pyrimido[4,5-d]pyridazin-5(6H)-one] yielded a Ki of 0.32 nM.
For `Cn1cnc(-c2nn(-c3c(Cl)cccc3Cl)c(=O)c3cnc(Nc4ccc5c(c4)CNCC54CC4)nc23)c1` [Example 341, 6-(2,6-dichlorophenyl)-2-(2′,3′-dihydro-1′H-spiro[cyclopropane-1,4′-isoquinolin]-7′-ylamino)-8-(1-methyl-1H-imidazol-4-yl)pyrimido[4,5-d]pyridazin-5(6H)-one], the Ki was 1 nM.
Work on `Cn1cnc(-c2nn(-c3c(Cl)cccc3Cl)c(=O)c3cnc(Nc4ccc5c(c4)CNCC5)nc23)c1` [Example 342, 6-(2,6-dichlorophenyl)-8-(1-methyl-1H-imidazol-4-yl)-2-(1,2,3,4-tetrahydroisoquinolin-7-ylamino)pyrimido[4,5-d]pyridazin-5(6H)-one] yielded a Ki of 1 nM.
